Assay results taken from US5210075A, “Interleukin 6 antagonist peptides” (Tanabe Seiyaku Co., Ltd., priority 1990, dated 1993).

Test system: IL-6 mediated proliferation of B9.9 cells
Test: IL-6-dependent B9.9 cell proliferation assay
Format: cell-based, mouse
Settings: peptide concentration = 250 μM
Text: Peptides according to the invention were synthesized by the solid phase peptide synthesis method (Merrifield, J. Am. Chem. Soc. 85:2149, 1963). The amino acid numbering of peptides derived from the IL-6 receptor (IL-6R) sequence is based on the published sequence of Yamasaki, et al, (Science 241:825, 1988), and numbering of peptides derived from the IL-6 sequence is based on the sequence of IL-6 as published by Hirano, et al. (Nature 324:73, 1986). The numbering refers to the position of the amino acids in the mature protein after excision of the signal sequence. Activity was established in an IL-6-dependent B9.9 cell proliferation assay as described hereunder.
IL-6 antagonist activity of the subject peptides was measured using the IL-6 dependent B9.9 hybridoma cell line as described in Brakenhoff et al., J. Immunol. […]
1×10^4 cells were cultured in presence of 4-fold serial dilutions (1:16 to 1:65,536) of F-IL-6 in RPMI supplemented with 10% fetal calf serum, 2 mM L-glutamine, and 5 ×10^-5 M 2-mercaptoethanol in flat bottom microtiter plates. After 2 days the cells were incubated for 4 hours with 3-(4,5-dimethylthiazol-2-yl)-diphenyl tetrazolium bromide (MTT) and the absorbance was measured at 570-650 nm as described in Mosmann, J. Immunol. […] One unit of IL-6 was defined as the amount of IL-6 required to obtain half maximal proliferation and was calculated by probit analysis. […]

Ac-GQLRAQEEFGQGE-NH2 [Ac-GQLRAQEEFGQGE-NH2]
Percent Inhibition of IL-6 mediated proliferation of B9.9 cells: 92 ± 6%

GAAAENNNLNLP
Percent Inhibition of IL-6 mediated proliferation of B9.9 cells: 29 ± 19%
